The record followed here is patent US20250066358A1, “Inhibitors of Menin-MLL Interaction” (Bala Therapeutics, Inc., priority 2021, published 2025).

Data set [1] deals with T1, recombinant MEN1 protein and fluorescein-labeled MLL4-43 peptide (Homo sapiens, UniProt O00255).
T1 construct: purchased Creativebiomart MEN1-35H
T1 sequence (O00255 1-610): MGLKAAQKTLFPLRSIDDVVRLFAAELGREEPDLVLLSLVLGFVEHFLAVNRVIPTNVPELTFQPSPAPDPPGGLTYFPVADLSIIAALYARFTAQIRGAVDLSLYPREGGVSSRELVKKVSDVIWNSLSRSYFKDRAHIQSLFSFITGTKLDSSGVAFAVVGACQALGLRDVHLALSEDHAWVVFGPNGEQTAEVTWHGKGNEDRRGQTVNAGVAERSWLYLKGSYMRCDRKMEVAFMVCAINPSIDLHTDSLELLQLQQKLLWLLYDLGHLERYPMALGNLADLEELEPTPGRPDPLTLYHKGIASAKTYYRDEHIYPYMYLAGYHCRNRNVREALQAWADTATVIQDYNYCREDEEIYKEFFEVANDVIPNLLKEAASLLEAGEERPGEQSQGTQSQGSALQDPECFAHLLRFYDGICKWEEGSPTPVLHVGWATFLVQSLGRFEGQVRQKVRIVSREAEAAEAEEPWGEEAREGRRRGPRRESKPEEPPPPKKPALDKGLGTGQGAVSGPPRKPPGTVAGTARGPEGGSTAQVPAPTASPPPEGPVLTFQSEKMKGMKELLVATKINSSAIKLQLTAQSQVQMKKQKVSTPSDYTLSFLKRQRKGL
In words: Primary fluorescence polarization assay of MEN1 / MLL4-43 interaction inhibition. In kind it is binding. The settings on record: MEN1 10 nM, MLL4-43 0.5 nM, 1 hour at room temperature. How it is done: Compound activity was determined using recombinant MEN1 protein (Creativebiomart, Cat #MEN1-35H) and a custom fluorescein-labeled MLL4-43 peptide (Eton Bioscience Inc.). Interaction between MEN1 and MLL4-43 in the presence of compounds was determined by fluorescence polarization assay using a Microplate Reader ClarioStar Plus. The reaction was carried out in assay buffer (50 mM TRIS-HCl PH 7.4-7.6, 50 mM NaCl, 1 mM DTT, 0.1 mg/ml BSA). The compounds were dispensed on a 384 well Diamond Well Plate (Axigen, Cat #P-384-120 SQ-C—S) using the Biomek FX liquid handling system at 100× solutions of compounds in DMSO. 2× MEN1 mix (final concentration of MEN1 10 nM) was prepared in Assay buffer and 10 μl of mixture per well was added into 384w white Reaction plate with NBS(Corning, Cat #4513). 10 μl of Assay buffer w/o MENI was used for negative control. Plates were centrifuged for 1 min at 100 g. Next step the Compounds were added to Reaction plate using Biomek station via following steps: 3 μl of 100× compounds (in DMSO) were mixed thoroughly with 27 μl Assay Buffer, then 2 μl of this mixture was added to Reaction plate with 10 μl of MENI mix. Plates were centrifuged for 1 min at 100 g and incubated for 20 min at room temperature. Next 8 μL of MLL4-43 peptide per well was added to final concentration of MLL 0.5 nM. Plates were incubated for 1 hour at room temperature. Then fluorescence polarization was measured using Microplate Reader.
In general terms: In fluorescence polarisation assays a small probe gives low polarisation when free and higher when bound to something large.

For a further data set, the system named is MOLM-13. In words: MOLM-13 Cellular Growth Inhibition Assay (CellTiter-Glo). Type of data set: cell-based. To be noted: Homo sapiens, 168 h, MOLM-13 cells, 7 days of incubation. Here is the method: (§1) HEK293 (Institute of Cytology Russian Academy of Science), MV4-11 (ATCC, CRL-9591), MOLM-13 (AcceGen, ABC-TC517S) were seeded at a density of 500 cells per well (HEK293) and 2000 cells per well (MV4-11, MOLM-13) in a 384-well clear bottom plate (Greiner Cat #781090) in 45 μl total volume of DMEM (PanEco, Cat #C420, Russia) or RPMI (PanEco, Cat #C330, Russia) with 10% FBS(HyClone Cat #SV30160.03). HEK293 were allowed to adhere overnight at 37° C., 5% CO2. 500× compounds solutions in DMSO (Sigma Cat #D2650) were prepared into Cmpnds plate (Diamond Well Plate, Axigen, Cat #P-384-120 SQ-C—S) and DMSO only control was included. 1 μl of 500× compounds (Cmpnds plate) was added to 49 μl of culture medium into Dilution plate (Diamond Well Plate, Axigen, Cat #P-384-120 SQ-C—S), mixed and then 5 μl of 10× compounds solutions were transferred to cells followed by centrifugation at 100 g for 1 min. Final DMSO concentration was 0.2%. After 3 days of incubation, 10 μl of 1× compounds were added to cells. After 7 days of incubation, 12 μl of CellTiter-Glo (Promega, CAT #G7572) were added to the cells, plate was centrifuged at 100 g for 1 min and luminescence signal was measured using Microplate Reader (CLARIOStar).
On the technique in general: In ATP-based viability assays light output follows the ATP content of the culture.

Data set [2] can be described thus: HEK293 Cellular Growth Inhibition Assay (CellTiter-Glo). In kind it is cell-based. To be noted: human, HEK293 cells, 7 days of incubation. How it is done:
as §1

For a further data set, the system named is MV4-11. In words: MV4-11 Cellular Growth Inhibition Assay (CellTiter-Glo). Type of data set: cell-based. To be noted: Homo sapiens, 168 h, MV4-11 cells, 7 days of incubation. Here is the method:
as §1

Molecules are shown by their SMILES. A value given as a limit tells only on which side of the number the result lay.

For the molecule `FC(F)(F)Cc1ccc2ncnc(N3CC4(CCN(Cc5ccc6cc[nH]c6c5)CC4)C3)c2c1` [Compound 89, 4-(7-((1H-indol-6-yl)methyl)-2,7-diazaspiro[3.5]nonan-2-yl)-6-(2,2,2-trifluoroethyl)quinazoline], the EC50 in data set [1] was at most 0.075 µM. For the same molecule, the CC50 in the data set with MOLM-13 was 1 to 5 µM; with MV4-11 it was at most 1 µM. This molecule returned a CC50 at 7 days in data set [2] of at most 5 µM.
For the molecule `CCS(=O)(=O)N[C@H]1CC[C@H](CN2CCC3(CC2)CN(c2ncnc4ccc(C#Cc5ccccc5)cc24)C3)CC1` [Compound 53, N-((1R,4R)-4-((2-(6-(phenylethynyl)quinazolin-4-yl)-2,7-diazaspiro[3.5]nonan-7-yl)methyl)cyclohexyl)ethanesulfonamide], in data set [1], the EC50 is above 5 µM. Further, the CC50 was in the range of 5 to 10 µM in the data set with MOLM-13 and 2.5 to 5 µM in the data set on MV4-11. Also, the CC50 at 7 days in data set [2] is at most 5 µM.
`CCS(=O)(=O)Nc1ccc(CN2CCC3(CC2)CCN(c2ncnc4ccc(CC(F)(F)F)cc24)CC3)cc1` [Compound 1, N-[4-[[3-[6-(2,2,2-trifluoroethyl)quinazolin-4-y1]-3,9-diazaspiro[5.5]undecan-9-yl]methyl]phenyl]ethanesulfonamide]: in data set [1], the EC50 was 1 to 5 µM. The CC50 was in the range of 5 to 10 µM with MOLM-13 and 2.5 to 5 µM in the data set with MV4-11. The CC50 at 7 days in data set [2] was 5 to 15 µM.
Take `CCS(=O)(=O)Nc1ccc(CN2CCC3(CC2)CN(c2ncnc4ccc(CC(F)(F)F)cc24)C3)cc1OCC(C)N1CCN(S(C)(=O)=O)CC1` (racemic) [Compound 70, rac-(R)-N-(2-(2-(4-(methylsulfonyl)piperazin-1-yl)propoxy)-4-((2-(6-(2,2,2-trifluoroethyl)quinazolin-4-yl)-2,7-diazaspiro[3.5]nonan-7-yl)methyl)phenyl)ethanesulfonamide]: the 50% effective concentration (EC50) in data set [1] was above 5 µM. Also, the CC50 in the data set on MOLM-13 is 5 to 10 µM; in the data set with MV4-11, 2.5 to 5 µM. In data set [2], this molecule registered a CC50 at 7 days of 15 to 30 µM.
As to `CCNS(=O)(=O)c1ccc(CN2CC3(CCN(c4ncnc5ccc(CC(F)(F)F)cc45)CC3)C2)cc1` [Compound 45, N-ethyl-4-((7-(6-(2,2,2-trifluoroethyl)quinazolin-4-yl)-2,7-diazaspiro[3.5]nonan-2-yl)methyl)benzenesulfonamide], the EC50 in data set [1] lay in the range of 1 to 5 µM. The CC50 in the data set with MOLM-13 and in the data set with MV4-11 was 5 to 10 µM throughout. This molecule also registered a CC50 at 7 days in data set [2] of 15 to 30 µM.
`CCS(=O)(=O)N[C@H]1CC[C@H](CN2CCC3(CC2)CN(c2ncnc4ccc(CC(F)(F)F)cc24)C3)CC1` [Compound 5, N-((1R,4R)-4-((2-(6-(2,2,2-trifluoroethyl)quinazolin-4-yl)-2,7-diazaspiro[3.5]nonan-7-yl)methyl)cyclohexyl)ethanesulfonamide]: the concentration for a half-maximal effect (EC50) in data set [1] is at most 0.075 µM. Also, the CC50 with MOLM-13 was 1 to 5 µM; in the data set with MV4-11, at most 1 µM. The CC50 at 7 days in data set [2] is 5 to 15 µM.
With `CCS(=O)(=O)N[C@H]1CC[C@H](Cn2cc(CNc3ncnc4ccc(CC(F)(F)F)cc34)nn2)CC1` [Compound 69, N-((1R,4R)-4-((4-(((6-(2,2,2-trifluoroethyl)quinazolin-4-yl)amino)methyl)-1H-1,2,3-triazol-1-yl)methyl)cyclohexyl)ethanesulfonamide], the EC50 in data set [1] is above 5 µM. In addition, the CC50 with MOLM-13 is 5 to 10 µM; with MV4-11 it was above 10 µM. Also, in data set [2], the CC50 at 7 days was 30 to 50 µM.
On the same counts, the results for `Nc1ccc(CN2CCC3(CC2)CN(c2ncnc4ccc(CC(F)(F)F)cc24)C3)cc1C(=O)NCCN1CCOCC1` [Compound 91, 2-amino-N-(2-morpholinoethyl)-5-((2-(6-(2,2,2-trifluoroethyl)quinazolin-4-yl)-2,7-diazaspiro[3.5]nonan-7-yl)methyl)benzamide] are 1 to 5 µM, 10 to 20 µM, 2.5 to 5 µM and 5 to 15 µM.
On to `CCS(=O)(=O)N[C@H]1CC[C@H](CNc2ccc(CN3CCC4(CC3)CN(c3ncnc5ccc(CC(F)(F)F)cc35)C4)cc2)CC1` [Compound 79, N-((1R,4R)-4-(((4-((2-(6-(2,2,2-trifluoroethyl)quinazolin-4-yl)-2,7-diazaspiro[3.5]nonan-7-yl)methyl)phenyl)amino)methyl)cyclohexyl)ethanesulfonamide], for which the 50% effective concentration (EC50) in data set [1] lay in the range of 0.075 to 0.5 µM. The values for the CC50 with MOLM-13 and in the data set with MV4-11 were 1 to 5 µM and above 10 µM, respectively. This molecule also displayed a CC50 at 7 days in data set [2] of at most 5 µM.
On the same counts, the results for `CCS(=O)(=O)Nc1ccc(CN2CCC3(CC2)CN(c2ncnc4cc(CC(F)(F)F)ccc24)C3)cc1` [Compound 8, N-(4-((2-(7-(2,2,2-trifluoroethyl)quinazolin-4-yl)-2,7-diazaspiro[3.5]nonan-7-yl)methyl)phenyl)ethanesulfonamide] are above 5 µM, 10 to 20 µM, 5 to 10 µM and 15 to 30 µM.
Consider `CCS(=O)(=O)N[C@H]1CC[C@H](CN2CCC3(CC2)CN(c2ncnc4ccc(CC(C)c5ccccc5)cc24)C3)CC1` (mixture of isomers) [Compound 59, N-((1R,4R)-4-((2-(6-((RS)-2-phenylpropyl)quinazolin-4-yl)-2,7-diazaspiro[3.5]nonan-7-yl)methyl)cyclohexyl)ethanesulfonamide], for which the EC50 in data set [1] was in the range of 0.075 to 0.5 µM. Besides, the CC50 in the data set on MOLM-13 and with MV4-11 was at most 1 µM in each case. The molecule further had a CC50 at 7 days in data set [2] of at most 5 µM.
With `CCS(=O)(=O)N[C@H]1CC[C@H](CN2CCC(Nc3ncnc4ccc(CC(F)(F)F)cc34)C2)CC1` (mixture of isomers) [Compound 71, N-((1R,4R)-4-(((RS)-3-((6-(2,2,2-trifluoroethyl)quinazolin-4-yl)amino)pyrrolidin-1-yl)methyl)cyclohexyl)ethanesulfonamide], in data set [1], the concentration for a half-maximal effect (EC50) is above 5 µM. Also, the 50% cytotoxic concentration (CC50) was above 20 µM with MOLM-13 and above 10 µM with MV4-11. The CC50 at 7 days in data set [2] is above 50 µM.
On to `CCS(=O)(=O)Nc1ccc(CN2CCC3(CC2)CN(c2ncnc4ccc(CCc5ccccc5)cc24)C3)cc1` [Compound 52, N-(4-((2-(6-phenethylquinazolin-4-yl)-2,7-diazaspiro[3.5]nonan-7-yl)methyl)phenyl)ethanesulfonamide], for which the concentration for a half-maximal effect (EC50) in data set [1] was 0.5 to 1 µM. Further, the values for the CC50 in the data set on MOLM-13 and in the data set with MV4-11 were 1 to 5 µM and 1 to 2.5 µM, respectively. For the same molecule, the CC50 at 7 days in data set [2] lay in the range of 5 to 15 µM.
On to `CCS(=O)(=O)Nc1ccc(CN2CCC3(CC2)CN(c2ncnc4ccc(CCc5ccncc5)cc24)C3)cc1` [Compound 49, N-(4-((2-(6-(2-(pyridin-4-yl)ethyl)quinazolin-4-yl)-2,7-diazaspiro[3.5]nonan-7-yl)methyl)phenyl)ethanesulfonamide], for which, in data set [1], the concentration giving a half-maximal response (EC50) lay in the range of 1 to 5 µM. Besides, the CC50 was 10 to 20 µM in the data set with MOLM-13 and 5 to 10 µM in the data set with MV4-11. Moreover, the CC50 at 7 days in data set [2] lay within 30 to 50 µM.

Broadly, the EC50 is the midpoint of the concentration-response curve. The CC50 is the concentration giving 50% cytotoxicity.
